Results taken from PubChem BioAssay AID686962 (Sanford-Burnham Center for Chemical Genomics, 2013).
The source made the active and inactive calls.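 The calls were made as follows: active = IC50 at or below 20 µM in the dose response confirmation; inactive = the rest.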

Target: Low molecular weight phosphotyrosine protein phosphatase (Homo sapiens) (UniProt P24666)
Assay: LMPTP phosphatase inhibitors, SAR follow-up, biochemical, fluorescence intensity (AID 686962)
Settings: recombinant LMPTP-A, OMFP fluorogenic substrate, 50 min

Sequence of Low molecular weight phosphotyrosine protein phosphatase (Homo sapiens) (P24666 whole entry, looked up): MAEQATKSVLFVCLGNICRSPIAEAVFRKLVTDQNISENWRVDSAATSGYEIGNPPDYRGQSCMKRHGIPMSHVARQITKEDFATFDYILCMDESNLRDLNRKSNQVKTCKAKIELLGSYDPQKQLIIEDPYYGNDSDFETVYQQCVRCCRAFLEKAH

Row | IC50 | SMILES
1 | 13.5 µM | Cc1cccc(-c2nc(NCCCN3CCOCC3)c3ccccc3n2)c1
2 | 11.5 µM | Nc1nc(N)c(Cc2ccc(Cl)cc2Cl)c(N)n1
3 | 10.2 µM | Clc1cccc(Cl)c1Cn1cnc(=NCc2ccco2)c2[nH]cnc21
4 | 18.1 µM | CC(C)OCCCNc1nc(-c2ccccc2)nc2ccccc12
5 | 12.9 µM | Cc1ccc(-c2nc(NCc3cccnc3)c3ccccc3n2)cc1
6 | 2.86 µM | c1ccc(-c2cc(NCCN3CCCCC3)c3ccccc3n2)cc1
7 | 7.41 µM | Cc1c(CCC(=O)O)c(=O)oc2c(C)c(OCc3ccccc3Cl)ccc12
8 | inactive | O=C(OCCNc1nc(-c2ccccc2)nc2ccccc12)c1cccnc1
9 | 11.1 µM | c1ccc(-c2cc(N3CCCCC3)c3ccccc3n2)cc1
10 | inactive | O=C(OCCNc1nc(-c2ccccc2)nc2ccccc12)c1ccncc1
11 | 18.8 µM | Cc1ccc(-c2nc(NCCN3CCOCC3)c3ccccc3n2)cc1
12 | > 80 µM (inactive) | COc1ccccc1CNc1ncnc2ccsc12
13 | 19 µM | c1ccc(-c2nc(NCc3cccnc3)c3ccccc3n2)cc1
14 | inactive | Fc1ccccc1-c1nc(NCCCN2CCOCC2)c2ccccc2n1
15 | 14.7 µM | CCc1nc(N)nc(N)c1-c1ccc(Cl)cc1
16 | 10.6 µM | Fc1ccccc1-c1nc(NC2CCCC2)c2ccccc2n1
17 | 17.8 µM | c1ccc(-c2nc(NCCCn3ccnc3)c3ccccc3n2)cc1
